One data set addresses T1, CDK6/cyclinD3 (Homo sapiens, UniProt Q00534).
T1 construct: N-terminal, 6His-tagged full-length human cdk6 (MW=38 kDa); 6His (N); made in house; host or cells: Sf21 cells
Put plainly: CDK activity assay with p33 ATP, CDK6/cyclinD3. Format: biochemical. The following applies: 1 μM ATP; read-out: CDK6/cyclinD IC50. On the procedure:
CDK6/cyclinD3 (Accession Number for CDK6; GenBank X66365, for Cyclin D3; EMBL M90814):
N-terminal, 6His-tagged full-length human cdk6 (MW=38 kDa) complexed with N-terminal GST-tagged full-length human cyclin D3 (MW=59 kDa) were expressed in Sf21 cells. Recombinant protein complex was purified using glutathione-agarose and activated with CAK, and repurified with Ni2+/NTA-agarose column. Purity was measured to be at least 68%. Specific Activity was measured to be 39 U/mg, where one unit of cdk6/cyclinD3 activity is defined as 1 nmol phosphate incorporated into 0.1 mg/ml histone H1 per minute at 30° C. with a final ATP concentration of 100 μM. Enzyme was stored at concentration of 0.1 mg/ml in 50 mM Tris-HCl, pH 7.5, 270 mM sucrose, 150 mM NaCl, 1 mM benzamidine, 0.2 mM PMSF, 0.1% 2-mercaptoethanol, 0.1 mM EGTA, 0.03% Brij 35.

The target of a further data set is T2, CDK3/cyclinE (Homo sapiens, UniProt Q00526).
T2 construct: C-terminal 6His-tagged recombinant human full-length cdk3 (MW=36 kDa); 6His (C); made in house; host or cells: Sf21 insect cells (baculovirus)
T2 sequence (Q00526 whole entry): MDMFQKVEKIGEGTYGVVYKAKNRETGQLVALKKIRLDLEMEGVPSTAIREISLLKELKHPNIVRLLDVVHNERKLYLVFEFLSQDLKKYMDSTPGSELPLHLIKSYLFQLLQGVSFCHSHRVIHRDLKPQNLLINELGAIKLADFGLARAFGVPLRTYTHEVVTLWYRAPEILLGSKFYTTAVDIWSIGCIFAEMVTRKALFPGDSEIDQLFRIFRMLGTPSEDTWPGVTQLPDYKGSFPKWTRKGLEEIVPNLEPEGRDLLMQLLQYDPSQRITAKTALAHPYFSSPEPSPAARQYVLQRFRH
T2 sequence (P24864 whole entry partner): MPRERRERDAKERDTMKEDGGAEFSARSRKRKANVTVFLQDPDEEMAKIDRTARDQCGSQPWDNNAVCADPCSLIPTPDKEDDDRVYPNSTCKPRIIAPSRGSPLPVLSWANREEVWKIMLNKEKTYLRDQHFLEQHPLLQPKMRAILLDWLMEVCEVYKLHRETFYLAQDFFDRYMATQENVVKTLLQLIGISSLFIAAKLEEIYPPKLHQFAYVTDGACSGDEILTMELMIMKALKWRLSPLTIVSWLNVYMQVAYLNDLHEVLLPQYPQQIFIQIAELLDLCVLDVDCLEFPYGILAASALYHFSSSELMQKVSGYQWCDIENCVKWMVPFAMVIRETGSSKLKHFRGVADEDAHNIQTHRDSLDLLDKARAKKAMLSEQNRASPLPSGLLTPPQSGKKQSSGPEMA
The data set can be described thus: CDK activity assay with p33 ATP, CDK3/cyclinE. Format: biochemical. The following applies: 1 μM ATP. On the procedure:
CDK3/cyclinE (Accession Number for CDK3; GenBank X66357, for Cyclin E; GenBank NM_001238):
C-terminal 6His-tagged recombinant human full-length cdk3 (MW=36 kDa) were coexpressed with N-terminal GST-tagged recombinant human full-length cyclin E (MW=74 kDa) with baculovirus system in Sf21 insect cells. Recombinant protein complex was purified using Ni2+/NTA agarose and with purity to be 66% by SDS PAGE and Coomassie blue staining. Specific Activity of recombinant enzyme was measured to be 861 U/mg, where one unit of cdk3/cyclinE activity is defined as 1 nmol phosphate incorporated into 0.1 mg/ml histone H1 per minute at 30° C. with a final ATP concentration of […]. Enzyme was stored at a concentration of 0.1 mg/ml in 50 mM Tris/HCl pH7.5, 150 mM NaCl 0.1 mM EGTA, 0.03% Brij 35, 270 mM sucrose, 1 mM benzamidine, 0.2 mM PMSF, 0.1% 2-mercaptoethanol.

In data set [1] the test system is HL60 AML xenograft tumors. Put plainly: Anti-tumor activity in the HM60 AML nude mouse xenograft model. Format: in vivo. The following applies: for tumor growth (in words): compound 8 30 mg/Kg, compound 9 60 mg/Kg daily in 30% CAPTISOL
On the procedure: FIG. 2 is a graph of tumor size versus time for mice bearing HL60 AML xenograft tumors receiving 30 mg/Kg compound 8 in 30% CAPTISOL iv daily, 60 mg/Kg compound 9 in 30% CAPTISOL iv daily or vehicle only.
(d) An In Vivo Study of the Anti-Tumor Activity of Compounds 8 and 9 in 30% CAPTISOL in the HM60 AML Nude Mouse Xenograft Model
Mice were divided into three groups of 4 mice each. Tumor volumes at the commencement of treatment were 157±56 mm^3. One group of mice received 30 mg/Kg compound 8 daily in 30% CAPTISOL, while a second group received 60 mg/Kg compound 9 in 30% CAPTISOL daily. The third group received an equivalent volume of vehicle daily.

The next data set concerns the target CDK7/cyclinH1/MNAT1 (Homo sapiens, UniProt P50613). The data set can be described thus: CDK activity assay with p33 ATP, CDK7/cyclinH1/MNAT1.
Data set [2] deals with A375 Melanoma xenograft tumors. Put plainly: Anti-tumor activity in the A375 Melanoma nude mouse xenograft model. The note with it: 60 mg/Kg ip daily in 30% CAPTISOL
Format: in vivo. On the procedure: FIG. 1 is a graph of tumor size versus time for mice bearing A375 Melanoma xenograft tumors receiving either 60 mg/Kg compound 8 in 30% CAPTISOL iv daily or vehicle only.
(c) An In Vivo Study of the Anti-Tumor Activity of Compound 8 in 30% CAPTISOL in the A375 Melanoma Nude Mouse Xenograft Model
Mice were divided into two groups of 5 to 6 mice each. Tumor volumes at the commencement of treatment were 560±230 mm^3. Compound 8 in 30% CAPTISOL was administered daily (60 mg/Kg ip) to one group of animals, while the second group of animals received an equal volume of vehicle.

In a further data set the target is T3, CDK4/cyclinD1 (Homo sapiens, UniProt P11802).
T3 construct: Recombinant Human Full-length GST-tagged CDK-4 (MW=61.8 kDa) and cyclinD1 (MW=61.2 kDa); GST; made in house; host or cells: insect cells
T3 sequence (P11802 whole entry): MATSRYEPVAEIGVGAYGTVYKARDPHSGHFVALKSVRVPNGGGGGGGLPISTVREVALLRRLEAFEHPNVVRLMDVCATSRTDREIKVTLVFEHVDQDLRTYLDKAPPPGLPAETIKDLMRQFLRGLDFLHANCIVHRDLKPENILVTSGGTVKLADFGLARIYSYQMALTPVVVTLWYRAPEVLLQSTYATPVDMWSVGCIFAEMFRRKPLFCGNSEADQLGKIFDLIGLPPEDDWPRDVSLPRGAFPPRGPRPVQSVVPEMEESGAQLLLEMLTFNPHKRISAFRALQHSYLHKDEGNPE
T3 sequence (P24385 whole entry partner): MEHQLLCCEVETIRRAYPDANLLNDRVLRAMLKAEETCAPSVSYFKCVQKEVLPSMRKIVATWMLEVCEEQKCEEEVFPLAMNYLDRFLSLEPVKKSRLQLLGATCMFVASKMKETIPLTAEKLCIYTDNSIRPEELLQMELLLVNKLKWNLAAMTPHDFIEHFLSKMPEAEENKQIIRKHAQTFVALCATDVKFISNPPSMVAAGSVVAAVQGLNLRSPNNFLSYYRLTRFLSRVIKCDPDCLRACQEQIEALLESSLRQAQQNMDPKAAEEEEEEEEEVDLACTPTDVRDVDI
The data set can be described thus: CDK activity assay with p33 ATP, CDK4/cyclinD1. The note with it: 1 μM ATP. Format: biochemical. On the procedure: Recombinant Human Full-length GST-tagged CDK-4 (MW=61.8 kDa) and cyclinD1 (MW=61.2 kDa) were expressed in insect cells. […] Activity was determined at a final protein concentration at 8.33 μg/mL.
RBC-CTF (Substrate for CDK4):
Human RB protein (S773-K928, MW=44.46 kDa), N-terminal GST-tagged was purified and followed with a factor Xa cleavage, which was performed in 4 mM concentration of glutathione, Purified protein was stocked at a concentration of 0.67 mg/ml.
2 nM CDK4/cyclinD1 and 1 μM RB-CTF were mixed in the reaction buffer with final concentration of 1 μM ATP and 1% DMSO.

Data set [3] deals with OPM2 Multiple Myeloma xenograft tumors. Put plainly: Anti-tumor activity in the OPM2 Multiple Myeloma nude mouse xenograft model. Format: in vivo. The note with it: 60 mg/Kg iv daily in 30% CAPTISOL
Here is the method:
FIG. 3 is a graph of tumor size versus time for mice bearing OPM2 Multiple Myeloma xenograft tumors receiving either 60 mg/Kg compound 9 in 30% CAPTISOL iv daily or vehicle only.
(e) An In Vivo Study of the Anti-Tumor Activity of Compound 9 in 30% CAPTISOL in the OPM2 Multiple Myeloma Nude Mouse Xenograft Model
Mice were divided into two groups of 7 mice each. Treatment began when the tumor sizes were 276±46 mm^3. Compound 9 in 30% CAPTISOL was administered to the animals daily at 60 mg/Kg iv.

One may read the melting point as the temperature, or range, at which the solid turns liquid.

CDK7/cyclinH1/MNAT1, sequence (P50613 whole entry): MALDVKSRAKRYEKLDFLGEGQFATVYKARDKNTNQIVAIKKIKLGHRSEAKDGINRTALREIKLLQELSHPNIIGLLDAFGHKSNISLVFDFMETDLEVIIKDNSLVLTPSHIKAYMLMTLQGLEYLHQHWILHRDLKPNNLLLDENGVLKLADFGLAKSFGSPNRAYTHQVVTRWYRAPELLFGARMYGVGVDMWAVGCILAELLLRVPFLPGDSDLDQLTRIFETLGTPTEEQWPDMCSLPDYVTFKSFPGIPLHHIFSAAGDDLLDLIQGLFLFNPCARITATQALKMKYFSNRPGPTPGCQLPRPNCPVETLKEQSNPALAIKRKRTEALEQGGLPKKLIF
CDK7/cyclinH1/MNAT1, sequence (P51946 whole entry partner): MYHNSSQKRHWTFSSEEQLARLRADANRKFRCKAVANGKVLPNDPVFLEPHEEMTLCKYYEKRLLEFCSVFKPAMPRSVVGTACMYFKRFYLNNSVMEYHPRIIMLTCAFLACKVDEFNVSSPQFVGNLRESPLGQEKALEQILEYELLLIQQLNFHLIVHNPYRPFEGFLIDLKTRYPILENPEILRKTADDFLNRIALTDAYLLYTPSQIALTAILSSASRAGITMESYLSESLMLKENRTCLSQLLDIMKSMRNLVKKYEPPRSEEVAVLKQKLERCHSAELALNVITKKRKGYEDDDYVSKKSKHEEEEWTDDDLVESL
CDK7/cyclinH1/MNAT1, sequence (P51948 whole entry partner): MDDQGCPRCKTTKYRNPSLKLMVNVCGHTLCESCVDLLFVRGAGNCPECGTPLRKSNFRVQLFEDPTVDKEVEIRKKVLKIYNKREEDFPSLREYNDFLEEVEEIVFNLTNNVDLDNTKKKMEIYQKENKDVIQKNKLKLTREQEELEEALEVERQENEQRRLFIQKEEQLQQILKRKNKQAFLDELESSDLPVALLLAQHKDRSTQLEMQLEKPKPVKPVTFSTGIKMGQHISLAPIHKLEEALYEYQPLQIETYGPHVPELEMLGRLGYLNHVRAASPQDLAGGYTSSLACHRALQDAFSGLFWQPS
T1 sequence (Q00534 whole entry): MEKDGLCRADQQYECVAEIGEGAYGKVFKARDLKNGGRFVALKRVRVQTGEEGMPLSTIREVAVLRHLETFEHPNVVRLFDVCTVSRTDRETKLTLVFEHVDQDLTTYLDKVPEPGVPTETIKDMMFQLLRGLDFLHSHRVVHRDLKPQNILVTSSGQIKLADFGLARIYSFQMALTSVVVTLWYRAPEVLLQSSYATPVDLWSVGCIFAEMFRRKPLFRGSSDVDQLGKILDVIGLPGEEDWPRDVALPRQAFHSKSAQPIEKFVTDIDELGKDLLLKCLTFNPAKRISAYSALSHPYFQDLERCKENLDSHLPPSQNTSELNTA
T1 sequence (P30281 whole entry partner): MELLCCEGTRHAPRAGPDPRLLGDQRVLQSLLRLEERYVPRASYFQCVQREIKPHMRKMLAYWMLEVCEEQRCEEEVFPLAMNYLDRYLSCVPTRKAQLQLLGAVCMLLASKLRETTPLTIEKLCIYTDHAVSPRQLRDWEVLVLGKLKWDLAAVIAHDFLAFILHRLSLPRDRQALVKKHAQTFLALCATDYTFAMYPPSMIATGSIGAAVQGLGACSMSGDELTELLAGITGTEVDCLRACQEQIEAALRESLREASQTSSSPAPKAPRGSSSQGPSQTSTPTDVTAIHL
Procedure for CDK7/cyclinH1/MNAT1: Recombinant Human Full-Length protein, Histidine-tagged CDK7 (MW=43.2 kDa), Histidine-tagged cyclin H1 (MW=42.6 kDa), Histidine-tagged MNAT1 (MW=40.5 kDa), were expressed in insect cells.
For CDK activity assay, p33 ATP tracers were incubated with purified recombinant specific combination of purified CDK kinases, cyclins and substrates to monitor the enzyme activity. In these assays, individual reactions were carried out in specific conditions describe below with reaction buffer: 20 mM HEPES (pH 7.5), 10 mM MgCl2, 1 mM EGTA, 0.02% Brij 35, 0.02 mg/ml BSA, 0.1 mM Na3VO4, 2 mM DTT. […] Precipitated proteins were trapped onto glass fiber B filterplates and excess unlabeled p33 ATP was washed off. The plates were allowed to air-dry prior to the addition of 30 uL/well of Packard Microscint 20. The amount of incorporated isotope was measured using a Perkin Elmer TopCount plate reader. […] IC50 was calculated using Prism software with sigmoidal dose-response curve fitting.
100 nM CDK7/cyclinH1/MNAT1 and 20 μM Histon H1 were mixed in the reaction buffer with 1 μM ATP and 1% DMSO.

Consider `CC(C)(C)c1cnc(CSc2cnc(NC(=O)CCCCCCC(=O)NO)s2)o1` [Compound 8, N^1-(5-((5-tert-butyloxazol-2-yl)methylthio)thiazol-2-yl)-N^8-hydroxyoctanediamide], for which the IC50 is 100 to 1000 nM on CDK6/cyclinD3, < 100 nM on CDK3/cyclinE, 100 to 1000 nM at CDK7/cyclinH1/MNAT1 and 100 to 1000 nM on CDK4/cyclinD1. For the same compound, the “increase in tumor size” value in data set [1] (30 mg/Kg daily in 30% CAPTISOL, after 10 days, vehicle about 230% change) is recorded as ~90%; in data set [2] (after 10 days, vehicle about 130% increase), 50%. In addition, the “tumor growth (in words)” value in data set [1] and in data set [2] was “able to attenuate tumor growth” each time.

`CC(C)(C)c1cnc(CSc2cnc(NC(=O)Cc3ccc(OCCCC(=O)NO)cc3)s2)o1` [Compound 9, 4-(4-(2-(5-((5-tert-butyloxazol-2-yl)methylthio)thiazol-2-ylamino)-2-oxoethyl)phenoxy)-N-hydroxybutanamide]: the IC50 at CDK6/cyclinD3 was 100 to 1000 nM; on CDK3/cyclinE it was < 100 nM; at CDK7/cyclinH1/MNAT1 it was 100 to 1000 nM; on CDK4/cyclinD1, < 100 nM. The “decrease in tumor size” value in data set [1] (60 mg/Kg daily in 30% CAPTISOL, after 10 days, vehicle about 230% change) is reported as “about 50%”. In addition, the “tumor growth (in words)” value in data set [1] and in data set [3] was “able to attenuate tumor growth” each time. For the same compound, the “increase in tumor size” value in data set [3] (after 10 days, vehicle about 450% increase) is listed as ~50%.

As for `CC(C)(C)c1cnc(CSc2cnc(NC(=O)C3CCN(c4ncc(C(=O)NO)cn4)CC3)s2)o1` [Compound 20, 2-(4-(5-((5-tert-butyloxazol-2-yl)methylthio)thiazol-2-ylcarbamoyl)piperidin-1-yl)-N-hydroxypyrimidine-5-carboxamide], the melting point is 181 to 183 °C. Further, the IC50 at CDK6/cyclinD3 was 1000 to 10000 nM. At CDK3/cyclinE, the IC50 was < 100 nM. In addition, the IC50 on CDK7/cyclinH1/MNAT1 is 1000 to 10000 nM. Besides, at CDK4/cyclinD1, the IC50 fell in the range of 100 to 1000 nM.

Values taken from US8563741B2, “CDK inhibitors containing a zinc binding moiety” (Curis, Inc., priority 2007, dated 2013).
